Experimental findings from US20250144099A1, “INK4 TUMOR SUPPRESSOR PROTEINS MEDIATE RESISTANCE TO CDK4/6 KINASE INHIBITORS” (MEMORIAL SLOAN-KETTERING CANCER CENTER, priority 2021, published 2025) are described below.

Experiment [1] has as its system CDK6 expression in PTEN knockdown cells. As to the kind of experiment: Immunoblotting of CDK6 expression in PTEN knockdown cells. In kind it is cell-based, human. Also on record: dose or concentration left out as unconfirmed. The conditions noted are these: MK-2206 as printed. Here is the method:
Cell lysates were collected in RIPA buffer (Thermo Fisher Scientific) supplemented with protease and phosphatase inhibitors (Pierce). Protein concentration was quantified by using the BCA kit (Fisher Scientific). […] of protein lysates were loaded onto 4-12% SDS-PAGE gels (Invitrogen) for electrophoresis and transferred onto nitrocellular membranes. Blots were blocked with Intercept™ (TBS) Blocking Buffer (LI-COR Bioscience #927-60001) and incubated with primary antibody at 4° C. overnight. Secondary antibodies conjugated with fluorescence (LI-COR Bioscience #926-68071 and #926-32210) were incubated for 1 h at room temperature and blots were scanned by Odyssey Clx Imaging System from LI-COR Bioscience.
In general terms: In western blotting, separated proteins are transferred to a membrane and probed.

For the next experiment, the target named is CDK6 (Homo sapiens, UniProt Q00534). As to the kind of experiment: IP-in vitro kinase assay (ADP-Glo, Rb substrate) of immunoprecipitated CDK6. In kind it is biochemical. Also on record: Upregulation of wild-type CDK6 expression as a recurrent mechanism; endogenous in cells; host or cells: MCF-7 FAT1 CRISPR knockout (CDK6-high) cells. The conditions noted are these: IP-CDK6 from resistant CDK6-high (FAT1 loss) MCF7 cells, pre-treatment with 100 nM abemaciclib. As to the method:
IP-in vitro kinase assay. […] Lysates were collected as described above. […] of cell lysates were incubated with […] CDK4 (# sc-23896, Santa Cruz Biotechnology) or CDK6 (# sc-177-G, Santa Cruz Biotechnology) antibody at 4° C. overnight. 20 μl of ChIP-grade magnetic beads (Thermo Fisher Scientific) was added into each IP tube and incubated for 2 hours. IP samples were washed 2 times with kinase lysis buffer and 2 times with kinase reaction buffer (40 mM Tris-HCl [pH 7.5], 20 mM MgCl2, 0.1 mg/ml BSA, from SignalChem, #K03-09, with […] DTT adding freshly). 100 μl of kinase reaction buffer with 0.5 μg of recombinant human Rb1 protein and 100 μM of ATP was added into each tube.
A general note: ADP-Glo turns the ADP formed in a reaction into a luminescent signal.

CDK6, sequence (Q00534 whole entry): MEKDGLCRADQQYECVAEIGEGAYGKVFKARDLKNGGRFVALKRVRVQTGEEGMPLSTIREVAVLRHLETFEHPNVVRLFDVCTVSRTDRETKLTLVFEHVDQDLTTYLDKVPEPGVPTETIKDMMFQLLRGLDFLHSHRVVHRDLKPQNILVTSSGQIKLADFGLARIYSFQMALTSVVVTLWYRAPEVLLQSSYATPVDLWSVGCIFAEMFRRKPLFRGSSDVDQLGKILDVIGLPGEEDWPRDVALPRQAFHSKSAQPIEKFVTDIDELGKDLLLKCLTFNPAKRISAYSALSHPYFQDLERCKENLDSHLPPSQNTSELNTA
CDK6, sequence (P30281 whole entry partner): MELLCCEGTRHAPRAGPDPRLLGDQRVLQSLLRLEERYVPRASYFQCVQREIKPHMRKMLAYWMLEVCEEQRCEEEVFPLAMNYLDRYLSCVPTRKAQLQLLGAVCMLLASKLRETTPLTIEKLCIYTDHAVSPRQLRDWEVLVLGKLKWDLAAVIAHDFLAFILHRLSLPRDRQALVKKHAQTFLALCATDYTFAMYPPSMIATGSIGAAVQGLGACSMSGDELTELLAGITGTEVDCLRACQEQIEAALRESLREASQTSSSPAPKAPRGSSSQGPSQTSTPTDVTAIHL

As to `NC1(c2ccc(-c3nc4ccn5c(=O)[nH]nc5c4cc3-c3ccccc3)cc2)CCC1` [MK-2206], the CDK6 expression result in experiment [1] was “suppressed the expression of CDK6”.
As for `CCN1CCN(Cc2ccc(Nc3ncc(F)c(-c4cc(F)c5nc(C)n(C(C)C)c5c4)n3)nc2)CC1` [abemaciclib], the “CDK6 activity reduced compared to untreated” value on CDK6 stood at 48%.
